Assay results taken from paper PMC7515950, “Physiologically based pharmacokinetic modeling to assess metabolic drug–drug interaction risks and inform the drug label for fedratinib” (Cancer Chemotherapy and Pharmacology, 2020).
Like-named read-outs stand apart in the source and are kept apart here.

Tests used:
[1] = biological target: T1, BCRP (Homo sapiens, UniProt Q9UNQ0); assay: BCRP inhibition, vesicle-based (TRI0013); type: in vitro ADME
T1 sequence (Q9UNQ0 1-655): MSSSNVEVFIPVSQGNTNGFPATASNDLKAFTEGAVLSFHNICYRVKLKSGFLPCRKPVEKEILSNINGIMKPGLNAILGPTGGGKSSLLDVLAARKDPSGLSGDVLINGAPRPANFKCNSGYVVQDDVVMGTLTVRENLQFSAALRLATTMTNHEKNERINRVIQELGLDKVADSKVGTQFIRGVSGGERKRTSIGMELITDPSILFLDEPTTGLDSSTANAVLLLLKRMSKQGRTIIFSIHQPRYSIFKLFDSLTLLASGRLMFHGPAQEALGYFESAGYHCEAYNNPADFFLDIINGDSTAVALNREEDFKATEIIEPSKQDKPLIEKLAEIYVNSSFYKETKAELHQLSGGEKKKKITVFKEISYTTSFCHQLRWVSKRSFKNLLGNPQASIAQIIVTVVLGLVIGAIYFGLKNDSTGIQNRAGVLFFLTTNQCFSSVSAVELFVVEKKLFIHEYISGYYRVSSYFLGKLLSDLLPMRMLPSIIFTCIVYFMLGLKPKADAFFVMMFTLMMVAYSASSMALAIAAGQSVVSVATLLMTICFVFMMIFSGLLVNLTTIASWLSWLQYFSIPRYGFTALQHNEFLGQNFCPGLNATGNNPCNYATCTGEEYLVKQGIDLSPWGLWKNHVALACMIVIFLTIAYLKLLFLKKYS
From the text: (§1) The reported IC50 values were converted to Ki values using the Cheng-Prusoff equation [10]:
(§2) The transporter inhibition parameters (Ki) for fedratinib were derived from the experimentally determined IC50 values using the Cheng-Prusoff equation, i.e., Ki = IC50/(1+[S]/Km) with the substrate concentrations ([S]) reported in the experimental studies and the substrate Km values collected from literature, as summarized in Table 13.

[2] = Physicochemical properties (Study QUA-PG-2011-20593); settings: for pKa: free form is a diprotic base
From the text: The physicochemical properties and blood binding parameters of fedratinib including molecular weight, logP, pKa, fu, and B/P were experimentally measured and listed in Table 1.

[3] = test system: Caco-2/TC7; assay: Caco-2/TC7 permeability (Study AIV0208); type: in vitro ADME, human; settings: Apical pH:Basolateral pH 7.4:7.4; Simcyp input
From the text: (§3) By default, the QGut is set to be the mean value (i.e., 6.5 L/h) in the PBPK model of fedratinib.

[4] = Caco-2/TC7 permeability (Study AIV0208); type: in vitro ADME, human; settings: human, Caco-2
From the text: as §3

[5] = biological target: T2, CYP3A4 (Homo sapiens, UniProt P08684); assay: CYP reversible and mechanism-based inhibition in human liver microsomes (MIH0887), CYP3A4; type: in vitro ADME
T2 construct: from tissue; host or cells: human liver microsomes
Description: (§4) The CYP enzyme reverse inhibition and mechanism-based inhibition (MBI) parameters were estimated in the human liver microsome (HLM) incubation in vitro studies. The reported reversible inhibition parameter (i.e., apparent Ki) values for CYP2C8, CYP2C9, and CYP2D6, along with the MBI parameters (i.e., KI or Kapp and kinact) for CYP2C19 and CYP3A4, were supplied to the PBPK DDI model (see Table 2).

[6] = biological target: T3, OATP1B1 (Homo sapiens, UniProt Q9Y6L6); assay: OATP1B1 inhibition, HEK-hOATP1B1 cells (TRE0075); type: in vitro ADME; set-up: expressed in transfected cells; host or cells: HEK^TR-hOATP1B1
T3 sequence (Q9Y6L6 1-691): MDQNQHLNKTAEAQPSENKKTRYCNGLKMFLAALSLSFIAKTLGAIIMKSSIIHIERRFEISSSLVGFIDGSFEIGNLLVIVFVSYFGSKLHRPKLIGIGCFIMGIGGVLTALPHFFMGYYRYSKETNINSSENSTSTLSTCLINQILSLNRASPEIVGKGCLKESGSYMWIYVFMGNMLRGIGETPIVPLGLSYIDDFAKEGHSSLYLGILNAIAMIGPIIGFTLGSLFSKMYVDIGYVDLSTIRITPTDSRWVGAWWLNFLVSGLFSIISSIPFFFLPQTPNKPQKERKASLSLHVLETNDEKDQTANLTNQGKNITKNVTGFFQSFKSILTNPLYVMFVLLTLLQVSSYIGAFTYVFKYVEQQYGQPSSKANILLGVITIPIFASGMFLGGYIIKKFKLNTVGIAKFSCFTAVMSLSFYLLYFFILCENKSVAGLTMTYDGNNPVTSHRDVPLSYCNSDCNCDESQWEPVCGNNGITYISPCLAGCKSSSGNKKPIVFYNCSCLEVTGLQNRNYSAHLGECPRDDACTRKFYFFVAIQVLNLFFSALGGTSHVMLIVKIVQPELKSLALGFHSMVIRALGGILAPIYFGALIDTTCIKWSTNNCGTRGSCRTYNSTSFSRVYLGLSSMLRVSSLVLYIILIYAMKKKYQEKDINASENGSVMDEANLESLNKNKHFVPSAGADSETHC
From the text: as §1, §2

[7] = cited from earlier work
[8] = biological target: T4, CYP2D6 (Homo sapiens, UniProt P10635); assay: CYP inhibition in human liver microsomes (MIH0887), CYP2D6; type: in vitro ADME; settings: HLM, apparent Ki, reversible inhibition
T4 construct: from tissue; host or cells: human liver microsomes
Description: as §4

[9] = 300 mg QD, MF patients, Day 1, observation, GM
[10] = 300 mg QD, MF patients, Day 1, observation, Mean (SD)
[11] = 300 mg QD, MF patients, steady state, observation, GM
[12] = 300 mg QD, MF patients, steady state, observation, Mean (SD)
[13] = 400 mg QD, MF patients, Day 1, observation, GM
[14] = 400 mg QD, MF patients, Day 1, observation, Mean (SD)
[15] = 400 mg QD, MF patients, steady state, observation, GM
[16] = 400 mg QD, MF patients, steady state, observation, Mean (SD)
[17] = 500 mg QD, MF patients, Day 1, observation, GM
[18] = 500 mg QD, MF patients, Day 1, observation, Mean (SD)
[19] = 500 mg QD, MF patients, steady state, observation, GM
[20] = 500 mg QD, MF patients, steady state, observation, Mean (SD)
[21] = clinical observation in MF patients

T2 sequence (P08684 2-503 limits assumed): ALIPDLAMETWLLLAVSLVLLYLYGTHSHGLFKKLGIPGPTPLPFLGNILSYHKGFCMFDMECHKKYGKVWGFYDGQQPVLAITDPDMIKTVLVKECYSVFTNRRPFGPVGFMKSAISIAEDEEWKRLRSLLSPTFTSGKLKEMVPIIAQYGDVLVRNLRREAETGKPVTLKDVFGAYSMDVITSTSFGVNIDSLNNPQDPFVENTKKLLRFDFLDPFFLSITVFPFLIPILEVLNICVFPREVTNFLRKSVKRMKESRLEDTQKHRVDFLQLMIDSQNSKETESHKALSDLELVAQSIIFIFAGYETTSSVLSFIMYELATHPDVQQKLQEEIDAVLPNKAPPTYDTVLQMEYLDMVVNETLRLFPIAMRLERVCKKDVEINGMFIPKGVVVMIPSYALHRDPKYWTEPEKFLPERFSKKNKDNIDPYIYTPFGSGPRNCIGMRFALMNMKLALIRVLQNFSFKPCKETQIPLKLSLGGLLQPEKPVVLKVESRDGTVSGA
T4 sequence (P10635 whole entry): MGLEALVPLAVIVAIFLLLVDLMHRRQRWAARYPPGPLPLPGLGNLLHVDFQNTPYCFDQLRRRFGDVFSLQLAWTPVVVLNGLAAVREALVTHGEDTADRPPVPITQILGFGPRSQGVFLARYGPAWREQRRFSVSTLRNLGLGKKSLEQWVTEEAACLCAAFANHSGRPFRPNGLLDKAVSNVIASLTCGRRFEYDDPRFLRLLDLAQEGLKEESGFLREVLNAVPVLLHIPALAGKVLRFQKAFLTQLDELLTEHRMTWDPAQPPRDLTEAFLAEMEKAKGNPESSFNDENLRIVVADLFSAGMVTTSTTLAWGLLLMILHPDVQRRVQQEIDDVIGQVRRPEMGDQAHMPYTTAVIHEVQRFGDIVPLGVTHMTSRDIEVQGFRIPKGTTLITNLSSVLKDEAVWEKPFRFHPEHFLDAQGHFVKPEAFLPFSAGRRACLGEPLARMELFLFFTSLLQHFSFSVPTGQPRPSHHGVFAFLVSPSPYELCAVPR

Cc1cnc(Nc2ccc(OCCN3CCCC3)cc2)nc1Nc1cccc(S(=O)(=O)NC(C)(C)C)c1 [Fedratinib]
Ki ([1]; from IC50 by Cheng-Prusoff, probe methotrexate): 27.8 µM | IC50 ([1]; probe methotrexate 100 μM): 29.9 µM | LogPo:w ([2]; Study QUA-PG-2011-20593): 3.500 | logP ([2]; octanol/water, Study QUA-PG-2011-20593): 3.5 | pKa ([2]; pKa1 (base)): 6.4 | pKa ([2]; pKa2 (base)): 9.6 | PCaco-2 [3]: 17.800 10E-06 cm/s | Papp at 40 μM ([4]; Apical pH:Basolateral pH 6.5:7.4, 40 μM fedratinib): 0.21 ×10⁻⁶ cm/s | Papp at 100 μM ([4]; Apical pH:Basolateral pH 7.4:7.4, 100 μM fedratinib): 17.8 ×10⁻⁶ cm/s | Ki ([5]; HLM, assuming Ki = IC50/2): 9.55 µM | CYP3A4 KI or Kapp ([5]; HLM, mechanism-based inhibition): 1.57 µM | CYP3A4 KI or Kapp ([5]; HLM, mechanism-based inhibition, listed as fedratinib): 1.570 µM | kinact ([5]; human, human liver microsomes, HLM, mechanism-based inhibition): 0.000717 s⁻¹ | IC50 ([5]; midazolam as substrate, absence of NADPH during pre-incubation, read-out: CYP3A IC50): 19.1 µM | Ki ([6]; from IC50 by Cheng-Prusoff, probe estradiol-17β-glucuronide): 14.6 µM | IC50 ([6]; probe estradiol-17β-glucuronide 1 μM): 16.4 µM | AUC (AUCτ) [7, 9]: 7020 ng·h/mL | Cmax [7, 9]: 1070 ng/mL | AUC (AUCτ) [7, 10]: 9460 (7770) ng/mL·h | Cmax [7, 10]: 1380 (1060) ng/mL | AUC (AUCτ) [7, 11]: 22400 ng·h/mL | Cmax [7, 11]: 1530 ng/mL | AUC (AUCτ) [7, 12]: 25300 (14100) ng/mL·h | Cmax [7, 12]: 1800 (1120) ng/mL | AUC (AUCτ) [7, 13]: 9130 ng·h/mL | Cmax [7, 13]: 1290 ng/mL | AUC (AUCτ) [7, 14]: 9610 (3450) ng/mL·h | Cmax [7, 14]: 1430 (754) ng/mL | AUC (AUCτ) [7, 15]: 26900 ng·h/mL | Cmax [7, 15]: 1800 ng/mL | AUC (AUCτ) [7, 16]: 29100 (13500) ng/mL·h | Cmax [7, 16]: 2020 (1250) ng/mL | AUC (AUCτ) [7, 17]: 9980 ng·h/mL | Cmax [7, 17]: 1270 ng/mL | AUC (AUCτ) [7, 18]: 11300 (6060) ng/mL·h | Cmax [7, 18]: 1420 (710) ng/mL | AUC (AUCτ) [7, 19]: 38700 ng·h/mL | Cmax [7, 19]: 2540 ng/mL | AUC (AUCτ) [7, 20]: 44500 (24900) ng/mL·h | Cmax [7, 20]: 2830 (1370) ng/mL | accumulation ratio, AUC ([7]; Study ARD11936 500 mg QD, MF patients, observed): 3.9 | accumulation ratio, AUC [7, 21]: 2.9–3.2 | accumulation ratio, Cmax [7, 21]: 1.4–2.0 | Ki [8]: 10.1 µM
